Source: patent US9232799B2, “N-[(het)arylethyl)] pyrazole(thio)carboxamides and their heterosubstituted analogues” (BAYER INTELLECTUAL PROPERTY GMBH, priority 2010, dated 2016)
Like-named read-outs stand apart in the source and are kept apart here.

What was measured:
[1] = logP by HPLC on reversed-phase column (C 18), EEC Directive 79/831 Annex V.A8; format: physicochemical
Description: In table 1, the logP values were determined in accordance with EEC Directive 79/831 Annex V.A8 by HPLC (High Performance Liquid Chromatography) on a reversed-phase column (C 18), using the method described below: Temperature: 40° C.; […]

Fusarium graminearum = test: microbe, parasite or virus in culture; format: cell-based; conditions: 50 μM
Puccinia triticina = test: In vivo preventive test on Puccinia triticina (wheat); conditions: evaluated 8 days after inoculation; for Efficacy: dose 500 ppm of active ingredient
aflatoxines production = test: microbe, parasite or virus in culture; format: cell-based, Aspergillus parasiticus; conditions: 50 μM
Alternaria solani = test: In vivo preventive test on Alternaria solani (tomato); conditions: 500 ppm of active ingredient, evaluated 7 days after inoculation
Text: One day after this treatment, the plants are inoculated with an aqueous spore suspension of Alternaria solani.

Pyrenophora teres = test: In vivo preventive test on Pyrenophora teres (barley); conditions: 500 ppm of active ingredient, evaluated 7-9 days after inoculation
Text: One day after this treatment, the plants are inoculated with an aqueous spore suspension of Pyrenophora teres.

Sphaerotheca fuliginea = test: In vivo preventive test on Sphaerotheca fuliginea (cucumber); conditions: 500 ppm of active ingredient, evaluated 7 days after inoculation
Text: One day after this treatment, the plants are inoculated with an aqueous spore suspension of Sphaerotheca fuliginea.

Botrytis cinerea = test: In vivo preventive test on Botrytis cinerea (beans)
Text: To test for preventive activity, young plants are sprayed with the preparation of active compound. After the spray coating has dried on, 2 small pieces of agar covered with growth of Botrytis cinerea are placed on each leaf.

Leptosphaeria nodorum = test: In vivo preventive test on Leptosphaeria nodorum (wheat); conditions: 500 ppm of active ingredient, evaluated 7-9 days after inoculation
Text: One day after this treatment, the plants are inoculated with an aqueous spore suspension of Leptosphaeria nodorum.

[2] = system: Blumeria graminis f.sp. hordei; test: In vivo preventive test on Blumeria graminis (barley); conditions: 500 ppm of active ingredient, evaluated 7 days after inoculation
Text: (§1) To test for preventive activity, young plants are sprayed with the preparation of active compound or active compound combination at the stated rate of application.

Septoria tritici = test: In vivo preventive test on Septoria tritici (wheat); conditions: 500 ppm of active ingredient, evaluated 21 days after inoculation
Text: as §1

[3] = Botrytis cinerea, 48 h, preventive, beans, 500 ppm of active ingredient, lesion size 2 days after inoculation, read-out: Efficacy

SMILES	logP [1]	% Inhibition of fungal growth at 50 μM (Fusarium graminearum)	Efficacy (Puccinia triticina)	% Inhibition of Aflatoxin at 50 μM (aflatoxines production)	Efficacy (Alternaria solani)	Efficacy (Pyrenophora teres)	Efficacy (Sphaerotheca fuliginea)	Efficacy (Leptosphaeria nodorum)	further results
CC(Cc1cccc(Oc2ccccc2)c1)NC(=O)c1c(C(F)F)nn(C)c1Cl (centres unmarked) [Example 147]	3.80	77%	70%	93%	100%	100%			
CC(Cc1ccccc1Cl)NC(=O)c1c(C(F)F)nn(C)c1Cl (centres unmarked) [Example 33]	3.15	100%	80%	100%	100%	100%	93%		
Cc1nn(C)c(F)c1C(=O)NCCc1ncc(C(F)(F)F)cc1Cl [J-1 from WO-2004/074280, N-{2-[3-chloro-5-(trifluoromethyl)pyridin-2-yl]ethyl}-5-fluoro-1,3-dimethyl-1H-pyrazole-4-carboxamide, reference compound]							16%		Efficacy (Sphaerotheca fuliginea; listed as J-1): less than 20%; pest or weed control at 500 ppm (Botrytis cinerea; [3]): 0%; Efficacy (Botrytis cinerea; preventive, beans, 500 ppm of active ingredient, lesion size 2 days after inoculation, listed as J-1): no protection
Cn1cc(C(=O)N(C2CC2)C2CCCC2c2ccc(Cl)cc2Cl)c(C(F)F)n1 (centres unmarked) [7 from WO-2010/09466, N-cyclopropyl-N-[2-(2,4-dichlorophenyl)cyclopentyl]-3-(difluoromethyl)-1-methyl-1H-pyrazole-4-carboxamide, reference compound]									Efficacy (protection) (Puccinia triticina; preventive, 500 ppm of active ingredient): less than 5%
CC(CN(C(=S)c1c(C(F)F)nn(C)c1F)C1CC1)c1ccccc1 (centres unmarked) [Example 15]	3.92	83%		100%	90%	100%	100%	100%	
Cn1nc(C(F)F)c(C(=O)N(C[Si](C)(C)c2ccccc2)C2CCCCC2)c1F [Example 229]	4.86		80%		90%	70%			
CC(c1ccccc1Cl)C(C)N(C(=S)c1c(C(F)F)nn(C)c1F)C1CC1 (centres unmarked) [Example 43]	4.72	90%		100%	90%	100%	100%	100%	
Cn1nc(C(F)F)c(C(=O)NC[Si](C)(C)c2ccccc2Cl)c1Cl [Example 232]	3.69		95%						
COC(CNC(=O)c1c(C(F)F)nn(C)c1F)c1cc(Cl)cc(Cl)c1 (centres unmarked) [Example 107]	3.33	74%		98%	90%	95%			Efficacy [2]: 78%; Efficacy (Septoria tritici): 86%
Cc1nn(C)c(F)c1C(=O)N(C[Si](C)(C)c1cc(Cl)cc(Cl)c1)C1CC1 [compound CMP2, N-cyclopropyl-N-{[(3,5-dichlorophenyl)(dimethyl)silyl]methyl}-5-fluoro-1,3-dimethyl-1H-pyrazole-4-carboxamide, reference compound]									pest or weed control at 500 ppm (Botrytis cinerea; Botrytis cinerea, 48 h, dose 500 ppm of active ingredient, table K10, read-out: Efficacy): 10%; pest or weed control at 500 ppm (Botrytis cinerea; [3]): < 10%
CN(CCc1ccc(F)cc1)C(=O)c1c(C(F)F)nn(C)c1Cl [Example 24]	2.66	88%	80%	100%	100%	95%			
COC(c1ccc(Cl)cc1Cl)C1(NC(=O)c2c(C(F)F)nn(C)c2Cl)CC1 (centres unmarked) [Example 78]	3.70	100%		100%	100%	100%	100%	80%	
Cn1nc(C(F)F)c(C(=O)NC(C)(C)C(=O)c2ncc(C(F)(F)F)cc2Cl)c1Cl [Example 195]	3.39	81%		100%	95%	100%	91%	94%	
CC(Cc1c(F)cccc1Cl)N(C(=O)c1c(C(F)F)nn(C)c1Cl)C1CC1 (centres unmarked) [Example 119]	3.94	79%	80%	95%	100%	100%			
CC(Cc1ccc(Cl)cc1)N(C(=O)c1cn(C)nc1C(F)F)C1CC1 (centres unmarked) [F-3 from WO-2007/060164, N-[1-(4-chlorophenyl)propan-2-yl]-N-cyclopropyl-3-(difluoromethyl)-1-methyl-1H-pyrazole-4-carboxamide, reference compound]									pest or weed control at 500 ppm (Botrytis cinerea; [3]): 0%; Efficacy (Botrytis cinerea; preventive, beans, 500 ppm of active ingredient, lesion size 2 days after inoculation, listed as F-3): no protection
Cn1cc(C(=O)NCCc2ccc(Cl)cc2Cl)c(C(F)F)n1 [compound CMP3, N-[2-(2,4-dichlorophenyl)ethyl]-3-(difluoromethyl)-1-methyl-1H-pyrazole-4-carboxamide, reference compound]									pest or weed control at 100 ppm (Botrytis cinerea; Botrytis cinerea, 48 h, preventive, beans, 100 ppm of active ingredient, lesion size 2 days after inoculation, read-out: Efficacy): 0%
Cc1nn(C)c(F)c1C(=O)NC(C)Cc1ncc(C(F)(F)F)cc1Cl (centres unmarked) [compound CMP6, N-{1-[3-chloro-5-(trifluoromethyl)pyridin-2-yl]propan-2-yl}-5-fluoro-1,3-dimethyl-1H-pyrazole-4-carboxamide, reference compound]									pest or weed control at 500 ppm (Botrytis cinerea; [3]): 0%
CN(CCc1cc(Cl)ccc1Cl)C(=O)c1c(C(F)F)nn(C)c1Cl [Example 95]	3.33	100%	70%	100%	100%	100%			
Cc1nn(C)c(Cl)c1C(=O)NC(C)(C)C(=O)c1ccc2ccccc2c1 [2-1 from WO-2006/016708, 5-chloro-1,3-dimethyl-N-[2-methyl-1-(2-naphthyl)-1-oxopropan-2-yl]-1H-pyrazole-4-carboxamide, reference compound]									pest or weed control at 500 ppm (Botrytis cinerea; [3]): < 30%
CC(Cc1c(F)cccc1F)N(C(=S)c1c(C(F)F)nn(C)c1F)C1CC1 (centres unmarked) [Example 28]	3.94				90%	100%	100%	95%	
Cn1nc(C(F)F)c(C(=O)NC[Si](C)(C)c2ccc(Cl)cc2Cl)c1Cl [Example 239]	4.25		70%		90%				
Cn1nc(C(F)F)c(C(=O)N(C2CC2)C2CCCCC2(C)c2ccccc2)c1F (mixture of isomers) [Example 218]		99%		100%	70%	100%	94%	95%	
CC(Cc1ccccc1Cl)NC(=O)c1c(C(F)F)nn(C)c1F (centres unmarked) [Example 31]	2.94	100%		100%	100%	100%	96%	70%	
Cn1cc(C(=O)N[C@H]2C[C@H]2c2ccc(Cl)cc2)c(C(F)F)n1 [1.001 from WO-2007/134799, N-[(1S,2S-1R′,2R)-2-(4-chlorophenyl)cyclopropyl]-3-(difluoromethyl)-1-methyl-1H-pyrazole-4-carboxamide, reference compound]									Efficacy (Botrytis cinerea; preventive, beans, 100 ppm of active ingredient, lesion size 2 days after inoculation): 8%; Efficacy (Botrytis cinerea; preventive, beans, 100 ppm of active ingredient, lesion size 2 days after inoculation, listed as 1.001): less than 10%; Efficacy (Botrytis cinerea; preventive, beans, 500 ppm of active ingredient, lesion size 2 days after inoculation): 89%; Efficacy (Botrytis cinerea; preventive, beans, 500 ppm of active ingredient, lesion size 2 days after inoculation, listed as 1.001): at least 85%
COC(c1ccc(Cl)cc1Cl)C1(NC(=O)c2c(C(F)F)nn(C)c2F)CC1 (centres unmarked) [Example 79]	3.46	98%		100%	100%	100%	100%	80%	
CC(c1ccccc1Cl)C(C)N(C(=O)c1c(C(F)F)nn(C)c1F)C1CC1 (centres unmarked) [Example 41]	3.87	100%		100%	100%	100%	74%	95%	Efficacy [2]: 100%; Efficacy (Septoria tritici): 93%
CC(Cc1cc(Cl)cc(Cl)c1)NC(=O)c1c(C(F)F)nn(C)c1F (centres unmarked) [Example 102]	3.48	100%	70%	100%	95%	100%			
